Measurements published in patent US20200346957A1, “BIOFILM […] TO MICROBIAL DESTRUCTION” (DRIPPING WET WATER, INC., priority 2019, published 2020).

Test system: biofilm within an infected cut
Assay: Chlorine dioxide disrupts biofilm within an infected cut (Example 4)
Format: in vivo
Details: retreated every 12 hours, after 36 hours
Protocol: FIGS. 3A, 3B, 3C, and 3D are photographs that show the progression of an infected cut at 0 hours, 12 hours, 24 hours, and 36 hours, respectively.
FIGS. 4A, 4B, 4C, and 4D are photographs that show the progression of an infected cut at 0 hours, 12 hours, 24 hours, and 36 hours, respectively.
Chlorine Dioxide and CURAD Antibacterial Bandages (benzalkonium chloride) are used in this example. The first of two infected cuts is exposed to 100 ppm of chlorine dioxide for 1 minute before the benzalkonium chloride bandage is applied. The second infected cut is not exposed to chlorine dioxide before the benzalkonium chloride bandage is applied. Both cuts are retreated every 12 hours. […] FIG. 4 illustrates that after 36 hours the second cut's infection, not treated with chlorine dioxide, actually increases.

Compound | progress of the cut's infection (FIG. 4) (infected cut with benzalkonium chloride bandage only, no chlorine dioxide) | progress of the cut's infection (FIG. 3) (infected cut exposed to 100 ppm chlorine dioxide for 1 minute before benzalkonium chloride bandage)
benzalkonium chloride | no apparent effect | 
[O][Cl+][O-] [chlorine dioxide] |  | significantly reduced
